Measured values: patent US20260078130A1, “NAMPT MODULATORS, PREPARATIONS, AND USES THEREOF” (SIRONAX LTD., priority 2022, published 2026)

What was measured:
[1] = molecular target: T1, human enzyme NAMPT (full length) (Homo sapiens, UniProt P43490); experiment: NMN fluorescence biochemical assay (stimulation of NMN synthesis by NAMPT); details: for EC50: NMN synthesis by purified human NAMPT (100 nM), concentration giving half-maximal activation, read-out: Enzymatic EC50; for Enzymatic Emax: fold change of maximal activation compared to DMSO
T1 construct: human enzyme NAMPT (full length)
Method in brief: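 Full-length human NAMPT (100 nM) was preincubated 15 min at 37 °C with compound in 50 mM Tris-HCl pH 7.5, 10 mM MgCl2, 2 mM DTT, then reacted 1 h at 37 °C with 50 μM NAM, 100 μM PRPP, 4 mM ATP (stated solution concentrations). NMN was derivatised with acetophenone/KOH then formic acid and read at Ex/Em 382/445 nm; EC50 and Emax (fold over DMSO) reported.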

[2] = system: endogenous NAMPT in U2OS cells; experiment: Cellular NAD+ modulation assay (NAD/NADH-Glo, U2OS cells); format: cell-based; details: Homo sapiens, 24 hours incubation with compound; for maximal fold induction: read-out: Cellular Emax
Method in brief: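 NAD/NADH-Glo luminescence quantified NAD+ after acid treatment (60 °C, 15 min) and neutralization of DTAB lysates. Beforehand, U2OS cells seeded 16 h earlier received compound concentration series for 24 h at 37 °C. Values given as half-maximal activation concentration (EC50) and maximal fold change versus DMSO (Emax).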

T1 sequence (P43490 whole entry): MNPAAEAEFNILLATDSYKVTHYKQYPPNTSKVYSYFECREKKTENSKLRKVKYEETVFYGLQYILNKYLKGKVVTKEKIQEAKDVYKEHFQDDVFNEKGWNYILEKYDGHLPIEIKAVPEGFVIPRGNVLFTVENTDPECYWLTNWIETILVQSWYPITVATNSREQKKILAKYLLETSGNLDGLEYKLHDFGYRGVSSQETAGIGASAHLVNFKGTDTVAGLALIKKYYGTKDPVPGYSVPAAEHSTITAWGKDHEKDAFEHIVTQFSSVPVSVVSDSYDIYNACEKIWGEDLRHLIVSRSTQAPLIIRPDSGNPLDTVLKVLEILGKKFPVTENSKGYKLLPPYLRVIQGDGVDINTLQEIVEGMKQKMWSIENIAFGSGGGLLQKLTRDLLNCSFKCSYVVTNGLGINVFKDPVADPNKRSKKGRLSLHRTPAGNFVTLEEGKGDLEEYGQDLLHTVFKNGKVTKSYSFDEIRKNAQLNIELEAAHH

SMILES | EC50 [1] [µM] | Enzymatic Emax [1] | EC50 [2] [µM] | maximal fold induction [2]
O=C1c2ccccc2C(Cc2ccccc2)N1Cc1ccc2[nH]c(=O)oc2c1 (stereo not drawn) [Compound 106, 6-((1-benzyl-3-oxoisoindolin-2-yl)methyl)benzo[d]oxazol-2(3H)-one] | 0.5 to 5 | A (A>3) | 0.5 to 5 | 1.2 to 1.5
CC1c2cc(Cc3ccccc3)ccc2C(=O)N1Cc1ccc2[nH]c(=O)oc2c1 (stereo not drawn) [Compound 113, 6-((5-benzyl-3-methyl-1-oxoisoindolin-2-yl)methyl)benzo[d]oxazol-2(3H)-one] | 0.5 to 5 | B (3≥B>2) | 0.5 to 5 | 1.2 to 1.5
O=C1c2ccccc2C(CCc2ccccc2)N1Cc1ccc2[nH]c(=O)oc2c1 (stereo not drawn) [Compound 114, 6-((1-oxo-3-phenethylisoindolin-2-yl)methyl)benzo[d]oxazol-2(3H)-one] | 0.5 to 5 | B (3≥B>2) | 5 to 50 | > 1.5
CC1c2cc(CN3CC4(CNC4)C3)ccc2C(=O)N1Cc1ccc2[nH]c(=O)oc2c1 (stereo not drawn) [Compound 115, 6-((5-((2,6-diazaspiro[3.3]heptan-2-yl)methyl)-3-methyl-1-oxoisoindolin-2-yl)methyl) benzo[d]oxazol-2(3H)-one] | ≥ 5 | A (A>3) | 5 to 50 | 1.2 to 1.5
O=C1c2ccc(C3CC3)cc2C(Cc2ccccc2)N1Cc1ccc2[nH]c(=O)oc2c1 (stereo not drawn) [Compound 116, 6-((3-benzyl-5-cyclopropyl-1-oxoisoindolin-2-yl)methyl)benzo[d]oxazol-2(3H)-one] | < 0.5 | B (3≥B>2) | 0.5 to 5 | > 1.5
O=C1c2ccc(CN3CCOCC3)cc2C(Cc2ccccc2)N1Cc1ccc2[nH]c(=O)oc2c1 (stereo not drawn) [Compound 123, 6-((3-benzyl-5-(morpholinomethyl)-1-oxoisoindolin-2-yl)methyl)benzo[d]oxazol-2(3H)-one] | 0.5 to 5 | A (A>3) | 0.5 to 5 | > 1.5
Cc1ccccc1CC1c2ccccc2C(=O)N1Cc1ccc2[nH]c(=O)oc2c1 (stereo not drawn) [Compound 124, 6-((1-(2-methylbenzyl)-3-oxoisoindolin-2-yl)methyl)benzo[d]oxazol-2(3H)-one] | < 0.5 | A (A>3) | 0.5 to 5 | > 1.5
CC1c2cc(C3CC3)ccc2C(=O)N1Cc1ccc2[nH]c(=O)oc2c1 (stereo not drawn) [Compound 125, 6-((5-cyclopropyl-3-methyl-1-oxoisoindolin-2-yl)methyl)benzo[d]oxazol-2(3H)-one] | ≥ 5 | A (A>3) | 0.5 to 5 | > 1.5
COC1CN(c2ccc3c(c2)C(C)N(Cc2ccc4[nH]c(=O)oc4c2)C3=O)C1 (stereo not drawn) [Compound 128, 6-((5-(3-methoxyazetidin-1-yl)-3-methyl-1-oxoisoindolin-2-yl)methyl)benzo[d]oxazol-2(3H)-one] | ≥ 5 | B (3≥B>2) | 0.5 to 5 | > 1.5
O=C1c2ccccc2C(Cc2ccccn2)N1Cc1ccc2[nH]c(=O)oc2c1 (stereo not drawn) [Compound 129, 6-((1-oxo-3-(pyridin-2-ylmethyl)isoindolin-2-yl)methyl)benzo[d]oxazol-2(3H)-one] | 0.5 to 5 | A (A>3) | 0.5 to 5 | > 1.5
O=C1c2ccccc2C(Cc2ccncc2)N1Cc1ccc2[nH]c(=O)oc2c1 (stereo not drawn) [Compound 130, 6-((1-oxo-3-(pyridin-4-ylmethyl)isoindolin-2-yl)methyl)benzo[d]oxazol-2(3H)-one] | ≥ 5 | B (3≥B>2) | 0.5 to 5 | > 1.5
N#Cc1cccc(CC2c3ccccc3C(=O)N2Cc2ccc3[nH]c(=O)oc3c2)c1 (stereo not drawn) [Compound 131, 3-((3-oxo-2-((2-oxo-2,3-dihydrobenzo[d]oxazol-6-yl)methyl)isoindolin-1-yl)methyl) benzonitrile] | 0.5 to 5 | A (A>3) | 0.5 to 5 | > 1.5
